From US12398178B2, “Collections of peptides, peptide agents, and methods of use thereof” (Parabilis Medicines, Inc., priority 2018, dated 2025) come the findings set out here.

Each structure is given as a SMILES string. Starred links: 1 amine or outer side, 2 acyl side, 3 side chain; linkers in the order of their positions; H or OH if unused. Positions of bridges follow the written chain, without caps; N, C: chain ends. Residues, ends and D or L forms follow the SMILES beside them. Phenylene(1,4-NHCOCH2)2 = O=C(C[*:1])Nc1ccc(NC(=O)C[*:2])cc1; X4 = O=C(C[*:1])O[C@H]1CC[C@@H](OC(=O)C[*:2])CC1; X9 = O=C(C[*:1])O[C@@H]1CCC[C@H](OC(=O)C[*:2])C1; X5 = CN(C(=O)C[*:1])c1ccc(N(C)C(=O)C[*:2])cc1; X6 = O=C(C[*:1])Nc1cc(Cl)c(NC(=O)C[*:2])cc1Cl; X8 = COc1cc(NC(=O)C[*:2])c(OC)cc1NC(=O)C[*:1]; X7 = O=C(C[*:1])Nc1cc(F)c(NC(=O)C[*:2])cc1F; X3 = O=C(C[*:1])Nc1ccccc1NC(=O)C[*:2]

This data set is described as follows: Measurement of LogD (CHI logD by HPLC). Format: physicochemical. As to conditions: CHI log D, 50 mM ammonium acetate pH 7.4 / acetonitrile gradient, C-18 column, 25° C. The procedure: Measurement of LogD: LogD values were measured on a Agilent 1260 HPLC with UV detector (254, 220 nm), using a Gemini NX C-18 50×3 mm column (Phenomenex) with a 6-minute 0-100% mobile phase gradient of A) 50 mM ammonium acetate pH 7.4 and B) Acetonitrile at 25° C. with a flow rate of 1 mL/min and injection volume of 3-5 uL.
The term chromatographic logD denotes lipophilicity estimated from chromatographic retention. `CC(C)C[C@@H]1NC(=O)[C@H](C)NC(=O)[C@H](C)NC(=O)[C@H](Cc2c[nH]cn2)NC(=O)[C@H](CCC(=O)O)NC(=O)[C@@H](NC(=O)[C@H](CCC(N)=O)NC(=O)[C@H](Cc2c[nH]c3ccccc23)NC(=O)[C@@H]2CCCN2C(=O)[C@H](C)NC(=O)[C@@H]2CCCN2C(=O)[C@H](CC(=O)O)NC(=O)[C@H](C)N)CSCC(=O)Nc2ccc(cc2)NC(=O)CSC[C@@H](C(=O)N[C@@H](CCC(=O)O)C(=O)N[C@@H](CC(C)C)C(=O)N[C@@H](CCC(=O)O)C(N)=O)NC(=O)[C@H](CC(C)C)NC1=O` [Compound 11] (H-ADPAPWQCEHAALLCELE-NH2; linker 8-15 via Phenylene(1,4-NHCOCH2)2; N-terminus and C-terminus assumed) displayed a chromatographic logD of 0.47.

In turn, `CC[C@H](C)[C@@H]1NC(=O)[C@H](CC(C)C)NC(=O)[C@H](C)NC(=O)[C@H](C)NC(=O)[C@H](Cc2c[nH]cn2)NC(=O)[C@H](CCC(=O)O)NC(=O)[C@@H](NC(=O)[C@H](CCC(=O)O)NC(=O)[C@H](Cc2c[nH]c3ccccc23)NC(=O)[C@H](CC(=O)O)NC(=O)[C@H](C)NC(=O)[C@@H]2CCCN2C(=O)[C@H](CC(=O)O)NC(=O)[C@H](C)N)CSCC(=O)Nc2ccc(cc2)NC(=O)CSC[C@@H](C(=O)N[C@@H](CC(=O)O)C(=O)N[C@@H](C)C(=O)N[C@@H](CCSC)C(N)=O)NC1=O` [Compound 12] (H-ADPADWECEHAALICDAM-NH2; linker 8-15 via Phenylene(1,4-NHCOCH2)2; N-terminus and C-terminus assumed) returned a chromatographic logD of 0.39.

`CC[C@H](C)[C@@H]1NC(=O)[C@H](CC(C)C)NC(=O)[C@H](C)NC(=O)[C@H](C)NC(=O)[C@H](Cc2c[nH]cn2)NC(=O)[C@H](CCC(=O)O)NC(=O)[C@@H](NC(=O)[C@H](CC(C)C)NC(=O)[C@H](Cc2c[nH]c3ccccc23)NC(=O)[C@H](Cc2ccc(O)cc2)NC(=O)[C@H](C)NC(=O)[C@@H]2CCCN2C(=O)[C@H](CC(=O)O)NC(=O)[C@H](C)N)CSCC(=O)Nc2ccc(cc2)NC(=O)CSC[C@@H](C(=O)N[C@@H](CCC(=O)O)C(=O)N[C@H](C(=O)N[C@@H](CCC(=O)O)C(N)=O)C(C)C)NC1=O` [Compound 13] (H-ADPAYWLCEHAALICEVE-NH2; linker 8-15 via Phenylene(1,4-NHCOCH2)2; N-terminus and C-terminus assumed) showed a chromatographic logD of 0.8.

Consider `CC[C@H](C)[C@H](NC(=O)[C@H](CCC(=O)O)NC(=O)[C@@H]1CSCC(=O)Nc2ccc(cc2)NC(=O)CSC[C@H](NC(=O)[C@@H]2CCCN2C(=O)[C@H](Cc2c[nH]c3ccccc23)NC(=O)[C@H](CCC(N)=O)NC(=O)[C@H](C)NC(=O)[C@@H]2CCCN2C(=O)[C@H](CC(=O)O)NC(=O)[C@H](C)N)C(=O)N[C@@H](CCC(=O)O)C(=O)N[C@@H](Cc2c[nH]cn2)C(=O)N[C@@H](C)C(=O)N[C@@H](C)C(=O)N[C@@H](CC(C)C)C(=O)N[C@@H](CC(C)C)C(=O)N1)C(=O)N[C@@H](CCC(=O)O)C(N)=O` [Compound 14] (H-ADPAQWPCEHAALLCEIE-NH2; linker 8-15 via Phenylene(1,4-NHCOCH2)2; N-terminus and C-terminus assumed), for which the chromatographic logD stood at 0.47.

`CC(C)C[C@@H]1NC(=O)[C@H](C)NC(=O)[C@H](C)NC(=O)[C@H](Cc2c[nH]c3ccccc23)NC(=O)[C@H](CCC(=O)O)NC(=O)[C@@H](NC(=O)[C@H](CCCNC(=N)N)NC(=O)[C@H](Cc2c[nH]cn2)NC(=O)[C@@H](NC(=O)[C@H](C)NC(=O)[C@@H]2CCCN2C(=O)[C@H](CC(=O)O)NC(=O)[C@H](C)N)[C@@H](C)O)CSCC(=O)Nc2cc(Cl)c(cc2Cl)NC(=O)CSC[C@@H](C(=O)N[C@@H](CCC(=O)O)C(=O)N[C@@H](CC(C)C)C(=O)N[C@H](C(N)=O)C(C)C)NC(=O)[C@H](Cc2c[nH]cn2)NC1=O` [Compound 33] showed a chromatographic logD of 0.68.

The compound `COc1cc2c(OC)cc1NC(=O)CSC[C@@H](C(=O)N[C@@H](CCC(=O)O)C(=O)N[C@@H](CC(C)C)C(=O)N[C@H](C(N)=O)C(C)C)NC(=O)[C@H](Cc1c[nH]cn1)NC(=O)[C@H](CC(C)C)NC(=O)[C@H](C)NC(=O)[C@H](C)NC(=O)[C@H](Cc1c[nH]c3ccccc13)NC(=O)[C@H](CCC(=O)O)NC(=O)[C@@H](NC(=O)[C@H](CCCNC(=N)N)NC(=O)[C@H](Cc1c[nH]cn1)NC(=O)[C@@H](NC(=O)[C@H](C)NC(=O)[C@@H]1CCCN1C(=O)[C@H](CC(=O)O)NC(=O)[C@H](C)N)[C@@H](C)O)CSCC(=O)N2` [Compound 34] yielded a chromatographic logD of 0.63.

`CC[C@H](C)[C@@H]1NC(=O)[C@H](CC(C)C)NC(=O)[C@H](C)NC(=O)[C@H](C)NC(=O)[C@H](Cc2c[nH]cn2)NC(=O)[C@H](CCC(=O)O)NC(=O)[C@@H](NC(=O)[C@H](C)NC(=O)[C@H](Cc2c[nH]c3ccccc23)NC(=O)[C@H](CC(C)C)NC(=O)[C@H](C)NC(=O)[C@@H]2CCCN2C(=O)[C@H](CC(=O)O)NC(=O)[C@H](C)N)CSCC(=O)N(C)c2ccc(cc2)N(C)C(=O)CSC[C@@H](C(=O)N[C@@H](CCC(=O)O)C(=O)N[C@H](C(=O)N[C@@H](CCC(N)=O)C(N)=O)[C@@H](C)O)NC1=O` [Compound 40] (H-ADPALWACEHAALICETQ-NH2; linker 8-15 via X5; N-terminus and C-terminus assumed) yielded a chromatographic logD of 0.73.

`CC[C@H](C)[C@@H]1NC(=O)[C@H](CC(C)C)NC(=O)[C@H](C)NC(=O)[C@H](C)NC(=O)[C@H](Cc2c[nH]cn2)NC(=O)[C@H](CCC(=O)O)NC(=O)[C@@H](NC(=O)[C@H](C)NC(=O)[C@H](Cc2c[nH]c3ccccc23)NC(=O)[C@H](CC(C)C)NC(=O)[C@H](C)NC(=O)[C@@H]2CCCN2C(=O)[C@H](CC(=O)O)NC(=O)[C@H](C)N)CSCC(=O)Nc2cc(F)c(cc2F)NC(=O)CSC[C@@H](C(=O)N[C@@H](CCC(=O)O)C(=O)N[C@H](C(=O)N[C@@H](CCC(N)=O)C(N)=O)[C@@H](C)O)NC1=O` [Compound 41] (H-ADPALWACEHAALICETQ-NH2; linker 8-15 via X7; N-terminus and C-terminus assumed) showed a chromatographic logD of 0.73.

Compound `CC[C@H](C)[C@@H]1NC(=O)[C@H](CC(C)C)NC(=O)[C@H](C)NC(=O)[C@H](C)NC(=O)[C@H](Cc2c[nH]cn2)NC(=O)[C@H](CCC(=O)O)NC(=O)[C@@H](NC(=O)[C@H](C)NC(=O)[C@H](Cc2c[nH]c3ccccc23)NC(=O)[C@H](CC(C)C)NC(=O)[C@H](C)NC(=O)[C@@H]2CCCN2C(=O)[C@H](CC(=O)O)NC(=O)[C@H](C)N)CSCC(=O)Nc2cc(Cl)c(cc2Cl)NC(=O)CSC[C@@H](C(=O)N[C@@H](CCC(=O)O)C(=O)N[C@H](C(=O)N[C@@H](CCC(N)=O)C(N)=O)[C@@H](C)O)NC1=O` [Compound 42] (H-ADPALWACEHAALICETQ-NH2; linker 8-15 via X6; N-terminus and C-terminus assumed) yielded a chromatographic logD of 0.84.

As to `CC[C@H](C)[C@@H]1NC(=O)[C@H](CC(C)C)NC(=O)[C@H](C)NC(=O)[C@H](C)NC(=O)[C@H](Cc2c[nH]cn2)NC(=O)[C@H](CCC(=O)O)NC(=O)[C@@H](NC(=O)[C@H](C)NC(=O)[C@H](Cc2c[nH]c3ccccc23)NC(=O)[C@H](CC(C)C)NC(=O)[C@H](C)NC(=O)[C@@H]2CCCN2C(=O)[C@H](CC(=O)O)NC(=O)[C@H](C)N)CSCC(=O)Nc2cc(OC)c(cc2OC)NC(=O)CSC[C@@H](C(=O)N[C@@H](CCC(=O)O)C(=O)N[C@H](C(=O)N[C@@H](CCC(N)=O)C(N)=O)[C@@H](C)O)NC1=O` [Compound 43] (H-ADPALWACEHAALICETQ-NH2; linker 8-15 via X8; N-terminus and C-terminus assumed), the chromatographic logD was found to be 0.75.

`CC[C@H](C)[C@@H]1NC(=O)[C@H](CC(C)C)NC(=O)[C@H](C)NC(=O)[C@H](C)NC(=O)[C@H](Cc2c[nH]cn2)NC(=O)[C@H](CCC(=O)O)NC(=O)[C@@H](NC(=O)[C@H](C)NC(=O)[C@H](Cc2c[nH]c3ccccc23)NC(=O)[C@H](CC(C)C)NC(=O)[C@H](C)NC(=O)[C@@H]2CCCN2C(=O)[C@H](CC(=O)O)NC(=O)[C@H](C)N)CSCC(=O)Nc2ccccc2NC(=O)CSC[C@@H](C(=O)N[C@@H](CCC(=O)O)C(=O)N[C@H](C(=O)N[C@@H](CCC(N)=O)C(N)=O)[C@@H](C)O)NC1=O` [Compound 44] (H-ADPALWACEHAALICETQ-NH2; linker 8-15 via X3; N-terminus and C-terminus assumed) showed a chromatographic logD of 0.7.

Take `CC[C@H](C)[C@@H]1NC(=O)[C@H](CC(C)C)NC(=O)[C@H](C)NC(=O)[C@H](C)NC(=O)[C@H](Cc2c[nH]cn2)NC(=O)[C@H](CCC(=O)O)NC(=O)[C@@H](NC(=O)[C@H](C)NC(=O)[C@H](Cc2c[nH]c3ccccc23)NC(=O)[C@H](CC(C)C)NC(=O)[C@H](C)NC(=O)[C@@H]2CCCN2C(=O)[C@H](CC(=O)O)NC(=O)[C@H](C)N)CSCC(=O)O[C@H]2CC[C@H](CC2)OC(=O)CSC[C@@H](C(=O)N[C@@H](CCC(=O)O)C(=O)N[C@H](C(=O)N[C@@H](CCC(N)=O)C(N)=O)[C@@H](C)O)NC1=O` [Compound 45] (H-ADPALWACEHAALICETQ-NH2; linker 8-15 via X4; N-terminus and C-terminus assumed): the chromatographic logD amounted to 1.03.

`CC[C@H](C)[C@@H]1NC(=O)[C@H](CC(C)C)NC(=O)[C@H](C)NC(=O)[C@H](C)NC(=O)[C@H](Cc2c[nH]cn2)NC(=O)[C@H](CCC(=O)O)NC(=O)[C@@H](NC(=O)[C@H](C)NC(=O)[C@H](Cc2c[nH]c3ccccc23)NC(=O)[C@H](CC(C)C)NC(=O)[C@H](C)NC(=O)[C@@H]2CCCN2C(=O)[C@H](CC(=O)O)NC(=O)[C@H](C)N)CSCC(=O)O[C@@H]2CCC[C@@H](C2)OC(=O)CSC[C@@H](C(=O)N[C@@H](CCC(=O)O)C(=O)N[C@H](C(=O)N[C@@H](CCC(N)=O)C(N)=O)[C@@H](C)O)NC1=O` [Compound 46] (H-ADPALWACEHAALICETQ-NH2; linker 8-15 via X9; N-terminus and C-terminus assumed): the chromatographic logD stood at 0.94.
